Laboratory results: ChEMBL document CHEMBL1201862, “PubChem BioAssay data set” (2004)
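Dose response: 5 concentrations. Exposure: 48 h. Format: 96-well plates. Endpoint: linear interpolation; highest concentration if not reached. Here, GI50 denotes the concentration required for 50% inhibition of growth.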 Activity calls are given as the source filed them. No stated cut-off is given here; in the data, active = GI50 up to about 1.1 µM and inactive = higher.

Columns and labels:
Assay in all cases: NCI anticancer screen, dose series, 48 h
HOP-62 = system: HOP-62
M14 = system: M14
SW-620 = system: SW-620
CAKI-1 = system: CAKI-1
TK-10 = system: TK-10
SF-539 = system: SF-539
OVCAR-5 = system: OVCAR-5
SNB-19 = system: SNB-19
HOP-92 = system: HOP-92
SK-MEL-2 = system: SK-MEL-2
MOLT-4 = system: MOLT-4
NCI-H226 = system: NCI-H226
SF-295 = system: SF-295
PC-3 = system: PC-3
COLO 205 = system: COLO 205
EKVX = system: EKVX
OVCAR-3 = system: OVCAR-3
UACC-62 = system: UACC-62
MCF7 = system: MCF7
HCC 2998 = system: HCC 2998

Row | Compound | GI50 (HOP-62) | GI50 (M14) | GI50 (SW-620) | GI50 (CAKI-1) | GI50 (TK-10) | GI50 (SF-539) | GI50 (OVCAR-5) | GI50 (SNB-19) | GI50 (HOP-92) | GI50 (SK-MEL-2) | GI50 (MOLT-4) | GI50 (NCI-H226) | GI50 (SF-295) | GI50 (PC-3) | GI50 (COLO 205) | GI50 (EKVX) | GI50 (OVCAR-3) | GI50 (UACC-62) | GI50 (MCF7) | GI50 (HCC 2998)
1 | CC1OC(=O)c2ccccc2NC1=O (stereo not drawn) | > 100 µM (inactive) | > 100 µM (inactive) | > 100 µM (inactive) | > 100 µM (inactive) | > 100 µM (inactive) | > 100 µM (inactive) | > 100 µM (inactive) | > 100 µM (inactive) | > 100 µM (inactive) | > 100 µM (inactive) | > 100 µM (inactive) | > 100 µM (inactive) | > 100 µM (inactive) | > 100 µM (inactive) | > 100 µM (inactive) | > 100 µM (inactive) | > 100 µM (inactive) | > 100 µM (inactive) | – | –
2 | CC(C)C(=O)CP(=O)(O)O | > 100 µM (inactive) | > 100 µM (inactive) | > 100 µM (inactive) | > 100 µM (inactive) | > 100 µM (inactive) | > 100 µM (inactive) | > 100 µM (inactive) | > 100 µM (inactive) | > 100 µM (inactive) | > 100 µM (inactive) | > 100 µM (inactive) | > 100 µM (inactive) | > 100 µM (inactive) | > 100 µM (inactive) | > 100 µM (inactive) | 23.4 µM (inactive) | > 100 µM (inactive) | > 100 µM (inactive) | > 100 µM (inactive) | –
3 | CCC12CCCN(Cc3ccccc3)C1c1c([nH]c3ccccc13)C(C(=O)OC)C2 (stereo not drawn) | > 10 µM (inactive) | > 10 µM (inactive) | > 10 µM (inactive) | > 10 µM (inactive) | > 10 µM (inactive) | > 10 µM (inactive) | 7.89 µM (inactive) | > 10 µM (inactive) | > 10 µM (inactive) | – | 5.85 µM (inactive) | – | > 10 µM (inactive) | > 10 µM (inactive) | > 10 µM (inactive) | – | > 10 µM (inactive) | > 10 µM (inactive) | > 10 µM (inactive) | > 10 µM (inactive)
4 | COc1c(-c2nc3ccc(N4CCN(C)CC4)nc3[nH]2)cc(OC)c2c1nc(CO)n2C | > 100 µM (inactive) | > 100 µM (inactive) | > 100 µM (inactive) | > 100 µM (inactive) | – | 53.3 µM (inactive) | > 100 µM (inactive) | > 100 µM (inactive) | > 100 µM (inactive) | > 100 µM (inactive) | > 100 µM (inactive) | > 100 µM (inactive) | > 100 µM (inactive) | > 100 µM (inactive) | 75.7 µM (inactive) | > 100 µM (inactive) | > 100 µM (inactive) | > 100 µM (inactive) | – | > 100 µM (inactive)
5 | CCOC(=O)C(O)(CC1=NC(C(=O)OC)(C(=O)OC)C(c2cccc(C=O)c2)O1)C(=O)OCC (stereo not drawn) | > 100 µM (inactive) | > 100 µM (inactive) | > 100 µM (inactive) | > 100 µM (inactive) | > 100 µM (inactive) | – | > 100 µM (inactive) | > 100 µM (inactive) | > 100 µM (inactive) | > 100 µM (inactive) | > 100 µM (inactive) | > 100 µM (inactive) | – | > 100 µM (inactive) | > 100 µM (inactive) | > 100 µM (inactive) | > 100 µM (inactive) | > 100 µM (inactive) | > 100 µM (inactive) | > 100 µM (inactive)
6 | CC(C)[Si](Oc1ccc(CC2N(C(=O)c3ccc([N+](=O)[O-])cc3)C(CCc3ccccc3)CC2(C)C=O)cc1)(C(C)C)C(C)C (stereo not drawn) | 7.57 µM (inactive) | – | – | > 100 µM (inactive) | > 100 µM (inactive) | 6.22 µM (inactive) | > 100 µM (inactive) | 15.6 µM (inactive) | 13.9 µM (inactive) | 86.7 µM (inactive) | – | 15.5 µM (inactive) | 7.05 µM (inactive) | > 100 µM (inactive) | > 100 µM (inactive) | 82.6 µM (inactive) | > 100 µM (inactive) | > 100 µM (inactive) | – | > 100 µM (inactive)
7 | COc1cc([C@@H]2c3cc4c(cc3C[C@@H]3COC(=O)C32)OCO4)cc(OC)c1O (stereo partly drawn) | 0.03 µM (active) | 0.0344 µM (active) | 0.0306 µM (active) | 0.0183 µM (active) | 0.039 µM (active) | 0.0188 µM (active) | – | – | 0.0957 µM (active) | – | 0.0271 µM (active) | 1.39 µM (inactive) | 0.0208 µM (active) | 0.0234 µM (active) | 0.0306 µM (active) | 0.0284 µM (active) | 0.0188 µM (active) | 0.0263 µM (active) | 0.017 µM (active) | –
8 | O=C(O)c1cc(O)nc(S)n1 | > 100 µM (inactive) | > 100 µM (inactive) | > 100 µM (inactive) | > 100 µM (inactive) | > 100 µM (inactive) | – | > 100 µM (inactive) | > 100 µM (inactive) | > 100 µM (inactive) | > 100 µM (inactive) | > 100 µM (inactive) | > 100 µM (inactive) | > 100 µM (inactive) | > 100 µM (inactive) | > 100 µM (inactive) | > 100 µM (inactive) | > 100 µM (inactive) | > 100 µM (inactive) | > 100 µM (inactive) | > 100 µM (inactive)
9 | COc1ccc(N2C(=O)C3c4[nH]c5ccccc5c4C4CCC(C(C)C)CC4C3C2=O)cc1 (stereo not drawn) | 33 µM (inactive) | > 100 µM (inactive) | > 100 µM (inactive) | > 100 µM (inactive) | > 100 µM (inactive) | – | > 100 µM (inactive) | > 100 µM (inactive) | > 100 µM (inactive) | > 100 µM (inactive) | > 100 µM (inactive) | > 100 µM (inactive) | 53 µM (inactive) | > 100 µM (inactive) | > 100 µM (inactive) | > 100 µM (inactive) | > 100 µM (inactive) | > 100 µM (inactive) | > 100 µM (inactive) | > 100 µM (inactive)
10 | COc1ccc(/N=C2\S/C(=N\C(=N\c3ccccc3)SCc3ccccc3)N(c3ccccc3)\C2=N/c2ccc(OC)cc2)cc1 | > 100 µM (inactive) | 72.1 µM (inactive) | > 100 µM (inactive) | – | > 100 µM (inactive) | – | – | > 100 µM (inactive) | > 100 µM (inactive) | > 100 µM (inactive) | > 100 µM (inactive) | > 100 µM (inactive) | – | > 100 µM (inactive) | > 100 µM (inactive) | > 100 µM (inactive) | – | > 100 µM (inactive) | > 100 µM (inactive) | > 100 µM (inactive)
11 | O=C(O)C(Cc1ccc2c(c1)CCC2)(Cc1ccc2c(c1)CCC2)C(=O)O | > 100 µM (inactive) | > 100 µM (inactive) | > 100 µM (inactive) | – | > 100 µM (inactive) | > 100 µM (inactive) | > 100 µM (inactive) | > 100 µM (inactive) | – | > 100 µM (inactive) | > 100 µM (inactive) | > 100 µM (inactive) | > 100 µM (inactive) | > 100 µM (inactive) | > 100 µM (inactive) | > 100 µM (inactive) | > 100 µM (inactive) | > 100 µM (inactive) | > 100 µM (inactive) | > 100 µM (inactive)
12 | C=CC(C)(C)/C(=C\CO[Si](C(C)C)(C(C)C)C(C)C)C(=O)N(C)c1ccccc1I | 16.3 µM (inactive) | 15.8 µM (inactive) | 12.6 µM (inactive) | 19 µM (inactive) | 13.4 µM (inactive) | 18 µM (inactive) | 13.9 µM (inactive) | 14.5 µM (inactive) | 8.61 µM (inactive) | – | 9.79 µM (inactive) | – | 13 µM (inactive) | 2.71 µM (inactive) | 16.4 µM (inactive) | 16 µM (inactive) | 11.6 µM (inactive) | 13.1 µM (inactive) | 11.5 µM (inactive) | 13.2 µM (inactive)
13 | O=S(=O)(O)c1ccc(NN(c2c(O)ccc3ccccc23)S(=O)(=O)O)cc1 | > 100 µM (inactive) | > 100 µM (inactive) | > 100 µM (inactive) | > 100 µM (inactive) | > 100 µM (inactive) | > 100 µM (inactive) | > 100 µM (inactive) | > 100 µM (inactive) | – | > 100 µM (inactive) | > 100 µM (inactive) | > 100 µM (inactive) | > 100 µM (inactive) | > 100 µM (inactive) | > 100 µM (inactive) | > 100 µM (inactive) | > 100 µM (inactive) | > 100 µM (inactive) | > 100 µM (inactive) | > 100 µM (inactive)
14 | Cc1ccc(C2c3c(n(C)c(=O)n(C)c3=O)OC(N(C)C)(N(C)C)C2(F)F)cc1 (stereo not drawn) | > 100 µM (inactive) | > 100 µM (inactive) | > 100 µM (inactive) | > 100 µM (inactive) | > 100 µM (inactive) | – | > 100 µM (inactive) | > 100 µM (inactive) | > 100 µM (inactive) | > 100 µM (inactive) | > 100 µM (inactive) | > 100 µM (inactive) | > 100 µM (inactive) | > 100 µM (inactive) | > 100 µM (inactive) | > 100 µM (inactive) | > 100 µM (inactive) | > 100 µM (inactive) | > 100 µM (inactive) | > 100 µM (inactive)
15 | Cc1ccc2c(c1)C=CC1(O2)N(c2ccccc2)C(=S)OC1(C)C (stereo not drawn) | > 100 µM (inactive) | 43.8 µM (inactive) | 75.5 µM (inactive) | > 100 µM (inactive) | > 100 µM (inactive) | – | 33.7 µM (inactive) | > 100 µM (inactive) | 12 µM (inactive) | 29 µM (inactive) | 29.9 µM (inactive) | > 100 µM (inactive) | 48.2 µM (inactive) | 9.27 µM (inactive) | > 100 µM (inactive) | 30 µM (inactive) | 29.6 µM (inactive) | 40.9 µM (inactive) | 21.3 µM (inactive) | 76.9 µM (inactive)
